Where two headings read alike, the source gives them in different places.
Biological target: T1, Cbl-b (truncated variant, UniProt number Q13191) (Homo sapiens, UniProt Q13191)
T1 construct: made in house
Assay: Cbl-b activity assay (TR-FRET, interaction of Cbl-b with UbcH5B-Ub)
Assay type: biochemical

[1] = Biological Example 1A, low or high conditions not stated, read-out: IC50 values in the Cbl-b inhibition assay of Biological Example 1A
[2] = high conditions: 100 mM NaCl, 60 nM Src kinase, 12 nM Cbl-b, read-out: Cbl-b activity IC50
[3] = low conditions: 50 mM NaCl, 30 nM Src kinase, 12 nM Cbl-b, read-out: Cbl-b activity IC50

T1 sequence (Q13191 36-427): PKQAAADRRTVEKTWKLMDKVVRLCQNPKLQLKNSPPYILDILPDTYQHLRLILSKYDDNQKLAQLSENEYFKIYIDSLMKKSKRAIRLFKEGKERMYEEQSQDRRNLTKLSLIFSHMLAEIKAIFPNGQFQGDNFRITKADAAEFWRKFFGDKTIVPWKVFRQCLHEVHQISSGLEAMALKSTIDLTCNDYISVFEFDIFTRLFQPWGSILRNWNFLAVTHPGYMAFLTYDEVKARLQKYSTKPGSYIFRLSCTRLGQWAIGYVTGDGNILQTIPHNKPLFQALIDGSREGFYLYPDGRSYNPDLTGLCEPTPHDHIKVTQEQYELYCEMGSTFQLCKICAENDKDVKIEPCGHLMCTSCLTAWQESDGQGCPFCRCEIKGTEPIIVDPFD

SMILES | IC50 [1] [nM] | IC50 [2] [nM] | IC50 [3] [nM]
C[C@H](Sc1nncn1C)c1cccc(-n2cc(-c3cccc(C#N)c3)nn2)c1 [Example 98, (S)-3-(1-(3-(1-(4-methyl-4H-1,2,4-triazol-3-ylthio)ethyl)phenyl)-1H-1,2,3-triazol-4-yl)benzonitrile] | ≥ 5000 | ≥ 5000 | –
CC(Sc1nncn1C)c1cccc(C(=O)Nc2cccc(C(F)(F)F)n2)c1 (centres unmarked) [Example 1, 3-(1-((4-methyl-4H-1,2,4-triazol-3-yl)thio)ethyl)-N-(6-(trifluoromethyl)pyridin-2-yl)benzamide] | ≥ 5000 | – | ≥ 5000
C[C@H](Cc1nncn1C)c1cccc(-c2n[nH]c3c(N4CC(O)C4)cc(C(F)(F)F)nc23)c1 [Example 110, (R)-1-(3-(3-(1-(4-methyl-4H-1,2,4-triazol-3-yl)propan-2-yl)phenyl)-5-(trifluoromethyl)-1H-pyrazolo[4,3-b]pyridin-7-yl)azetidin-3-ol] | – | 100 to 1000 | –
C[C@H](Sc1nncn1C)c1cccc(NC(=O)N2CCOC(CC(F)(F)F)C2)c1 (stereo partly drawn) [Example 131, N-(3-((S)-1-((4-methyl-4H-1,2,4-triazol-3-yl)thio)ethyl)phenyl)-2-(2,2,2-trifluoroethyl)morpholine-4-carboxamide] | – | ≥ 5000 | –
C[C@H](Cc1nncn1C)c1cccc(NC(=O)N2CC(C)(C)c3cccnc32)c1 [Example 22, (R)-3,3-dimethyl-N-(3-(1-(4-methyl-4H-1,2,4-triazol-3-yl)propan-2-yl)phenyl)-2,3-dihydro-1H-pyrrolo[2,3-b]pyridine-1-carboxamide] | – | 100 to 1000 | –
C[C@H](Cc1nncn1C)c1cccc(NC(=O)N2CCOc3cc(Br)cnc32)c1 [Example 21, (R)-7-bromo-N-(3-(1-(4-methyl-4H-1,2,4-triazol-3-yl)propan-2-yl)phenyl)-2,3-dihydro-4H-pyrido[3,2-b][1,4]oxazine-4-carboxamide] | – | 100 to 1000 | –
C[C@H](Sc1nncn1C)c1cccc(NC(=O)N2Cc3nccnc3C2)c1 [Example 145, (S)—N-(3-(1-((4-methyl-4H-1,2,4-triazol-3-yl)thio)ethyl)phenyl)-5,7-dihydro-6H-pyrrolo[3,4-b]pyrazine-6-carboxamide] | – | ≥ 5000 | –
C[C@H](Sc1nncn1C)c1cccc(NC(=O)N2Cc3cccc(O)c3C2)c1 [Example 45, (S)-4-hydroxy-N-(3-(1-((4-methyl-4H-1,2,4-triazol-3-yl)thio)ethyl)phenyl)isoindoline-2-carboxamide] | 100 to 1000 | 100 to 1000 | –
CC1CN(C(=O)Nc2cccc([C@H](C)Sc3nncn3C)c2)CC(C)O1 (stereo partly drawn) [Example 42, 2,6-dimethyl-N-(3-((S)-1-((4-methyl-4H-1,2,4-triazol-3-yl)thio)ethyl)phenyl)morpholine-4-carboxamide] | – | ≥ 5000 | –
C[C@H](Sc1nncn1C)c1cccc(NC(=O)N2CCCCC2)c1 [Example 124, (S)—N-(3-(1-((4-methyl-4H-1,2,4-triazol-3-yl)thio)ethyl)phenyl)piperidine-1-carboxamide] | – | ≥ 5000 | –
CNC(=O)C1(C)CCN(C(=O)Nc2cccc([C@H](C)Cc3nncn3C)c2)C1 (stereo partly drawn) [Example 12, N^3,3-dimethyl-N′-(3-((R)-1-(4-methyl-4H-1,2,4-triazol-3-yl)propan-2-yl)phenyl)pyrrolidine-1,3-dicarboxamide] | ≥ 5000 | ≥ 5000 | –
C[C@H](Sc1nncn1C)c1cccc(NC(=O)N2CCN(c3cccnc3)CC2)c1 [Example 149, (S)—N-(3-(1-((4-methyl-4H-1,2,4-triazol-3-yl)thio)ethyl)phenyl)-4-(pyridin-3-yl)piperazine-1-carboxamide] | – | ≥ 5000 | –
CNS(=O)(=O)c1ccc(NC(=O)Nc2cccc([C@H](C)Sc3nncn3C)c2)cc1 [Example 163, (S)—N-methyl-4-(3-(3-(1-((4-methyl-4H-1,2,4-triazol-3-yl)thio)ethyl)phenyl)ureido)benzenesulfonamide] | – | ≥ 5000 | –
C[C@H](Cc1nncn1C)c1cccc(-c2n[nH]c3c(N4CCC(O)CC4)ccnc23)c1 [Example 117, (R)-1-(3-(3-(1-(4-methyl-4H-1,2,4-triazol-3-yl)propan-2-yl)phenyl)-1H-pyrazolo[4,3-b]pyridin-7-yl)piperidin-4-ol] | – | 1000 to 5000 | –
CC(Sc1nncn1C)c1cccc(C(=O)Nc2ccccc2)c1 (centres unmarked) [Example 33, 3-(1-((4-methyl-4H-1,2,4-triazol-3-yl)thio)ethyl)-N-phenylbenzamide] | – | – | ≥ 5000
C[C@H](Sc1nncn1C)c1cccc(-n2cc(-c3ccc(C#N)cc3)nn2)c1 [Example 89, (S)-4-(1-(3-(1-(4-methyl-4H-1,2,4-triazol-3-ylthio)ethyl)phenyl)-1H-1,2,3-triazol-4-yl)benzonitrile] | 1000 to 5000 | 1000 to 5000 | –
C[C@H](Sc1nncn1C)c1cccc(NC(=O)N2CC(S(C)(=O)=O)C2)c1 [Example 134, 3-methanesulfonyl-N-[3-[(1S)-1-[(4-methyl-4H-1,2,4-triazol-3-yl)sulfanyl]ethyl]phenyl]azetidine-1-carboxamide] | – | ≥ 5000 | –

SMILES | IC50 [1] [nM] | IC50 [2] [nM] | IC50 [3] [nM]
CN1CC2(C1)CN(C(=O)Nc1cccc(C3(Cc4nncn4C)COC3)c1)c1ncccc1O2 [Example 29, 1-methyl-N-(3-(3-((4-methyl-4H-1,2,4-triazol-3-yl)methyl)oxetan-3-yl)phenyl)spiro[azetidine-3,2′-pyrido[3,2-b][1,4]oxazine]-4′(3′H)-carboxamide] | – | < 100 | –
CC(Sc1nncn1C)c1cccc(-c2cc(-c3cccc(C(F)(F)F)c3)no2)c1 (centres unmarked) [Example 69, 5-(3-(1-((4-methyl-4H-1,2,4-triazol-3-yl)thio)ethyl)phenyl)-3-(3-(trifluoromethyl)phenyl)isoxazole] | 1000 to 5000 | 1000 to 5000 | –
C[C@H](Sc1nncn1C)c1cccc(NC(=O)N2CC(c3cnn(C)c3)C(C)(C)C2)c1 (stereo partly drawn) [Example 53, 3,3-dimethyl-4-(1-methyl-1H-pyrazol-4-yl)-N-(3-((S)-1-((4-methyl-4H-1,2,4-triazol-3-yl)thio)ethyl)phenyl)pyrrolidine-1-carboxamide] | – | ≥ 5000 | –
CN1CCC2(CC1)CN(C(=O)Nc1cccc(C3(Cc4nncn4C)COC3)c1)c1ncccc12 [Example 31, 1-methyl-N-(3-(3-((4-methyl-4H-1,2,4-triazol-3-yl)methyl)oxetan-3-yl)phenyl)spiro[piperidine-4,3′-pyrrolo[2,3-b]pyridine]-1′(2′H)-carboxamide] | 100 to 1000 | 100 to 1000 | –
C[C@H](Sc1nncn1C)c1cccc(NC(=O)N2CC(OC(F)(F)F)C2)c1 [Example 52, (S)—N-(3-(1-((4-methyl-4H-1,2,4-triazol-3-yl)thio)ethyl)phenyl)-3-(trifluoromethoxy)azetidine-1-carboxamide] | – | ≥ 5000 | –
C[C@H](Sc1nncn1C)c1cccc(-c2cc(-c3ccc(S(C)(=O)=O)cc3)no2)c1 [Example 66, ((S)-5-(3-(1-(4-methyl-4H-1,2,4-triazol-3-yl)thio)ethyl)phenyl)-3-(4-(methylsulfonyl)phenyl)isoxazole] | ≥ 5000 | ≥ 5000 | –
C[C@H](Cc1nncn1C)c1cccc(-c2n[nH]c3ccc(C(F)(F)F)nc23)c1 [Example 116, (R)-3-(3-(1-(4-methyl-4H-1,2,4-triazol-3-yl)propan-2-yl)phenyl)-5-(trifluoromethyl)-1H-pyrazolo[4,3-b]pyridine] | 100 to 1000 | 100 to 1000 | –
C[C@H](Sc1nncn1C)c1cccc(NC(=O)N2CCC(C(F)F)C2)c1 (stereo partly drawn) [Example 47, 3-(difluoromethyl)-N-(3-((S)-1-((4-methyl-4H-1,2,4-triazol-3-yl)thio)ethyl)phenyl)pyrrolidine-1-carboxamide] | – | ≥ 5000 | –
C[C@H](Sc1nncn1C)c1cccc(NC(=O)Nc2ccccn2)c1 [Example 2, (S)-1-(3-(1-((4-methyl-4H-1,2,4-triazol-3-yl)thio)ethyl)phenyl)-3-(pyridin-2-yl)urea] | 100 to 1000 | – | 100 to 1000
C[C@H](Sc1nncn1C)c1cccc(-n2cc(-c3cccc(CO)c3)nn2)c1 [Example 92, (S)-(3-(1-(3-(1-(4-methyl-4H-1,2,4-triazol-3-ylthio)ethyl)phenyl)-1H-1,2,3-triazol-4-yl)phenyl)methanol] | ≥ 5000 | ≥ 5000 | –
C[C@H](Sc1nncn1C)c1cccc(NC(=O)N2CCS(=O)(=O)CC2)c1 [Example 165, (S)—N-(3-(1-((4-methyl-4H-1,2,4-triazol-3-yl)thio)ethyl)phenyl)thiomorpholine-4-carboxamide 1,1-dioxide] | – | ≥ 5000 | –
C[C@H](Sc1nncn1C)c1cccc(NC(=O)N2CC3(CCOC(=O)N3)C2)c1 [Example 141, (S)—N-(3-(1-((4-methyl-4H-1,2,4-triazol-3-yl)thio)ethyl)phenyl)-6-oxo-7-oxa-2,5-diazaspiro[3.5]nonane-2-carboxamide] | – | ≥ 5000 | –
CC1CCN(C(=O)Nc2cccc([C@H](C)Sc3nncn3C)c2)C1 (stereo partly drawn) [Example 41, 3-methyl-N-(3-((S)-1-((4-methyl-4H-1,2,4-triazol-3-yl)thio)ethyl)phenyl)pyrrolidine-1-carboxamide] | – | ≥ 5000 | –
CCN1CCc2nc(NC(=O)Nc3cccc([C@H](C)Sc4nncn4C)c3)sc2C1 [Example 137, (S)-1-(5-ethyl-4,5,6,7-tetrahydrothiazolo[5,4-c]pyridin-2-yl)-3-(3-(1-((4-methyl-4H-1,2,4-triazol-3-yl)thio)ethyl)phenyl)urea] | – | ≥ 5000 | –
Cn1cnnc1CC1(c2cccc(NC(=O)N3CC4(CCNCC4)c4cccnc43)c2)COC1 [Example 30, N-(3-(3-((4-methyl-4H-1,2,4-triazol-3-yl)methyl)oxetan-3-yl)phenyl)spiro[piperidine-4,3′-pyrrolo[2,3-b]pyridine]-1′(2′H)-carboxamide] | – | < 100 | –
C[C@H](Cc1nncn1C)c1cccc(-c2cc(-c3ncccn3)n[nH]2)c1 [Example 106, (R)-2-(3-(3-(1-(4-methyl-4H-1,2,4-triazol-3-yl)propan-2-yl)phenyl)-1H-pyrazol-5-yl) pyrimidine] | – | 100 to 1000 | –
